In patent publication US20090081314A1, “Glycemic Control, Diabetes Treatment, and Other Treatments with Acetyl Cholinesterase Inhibitors” (priority 2007, published 2009):
Where two headings read alike, the source gives them in different places.

Legend:
[1] = Cephalization of body mass / weight loss case studies; settings: patient seventeen; three months of donepezil 5 mg daily, no dieting or exercise program
HIV = HIV infection case studies: viral load and CD4 count; type: in vivo, human; settings: for viral load / CD4 count: on antivirals
Excerpt: The state of HIV infection is often monitored by CD4 counts (the higher the better) and circulating virus (the lower the better).

[2] = Insulin requirement of diabetic patients on donepezil (case studies); type: in vivo, human; settings: for insulin requirements at bedtime (lantus): patient eleven, before 35 units
[3] = Other clinical observations in diabetic patients on donepezil (case studies); type: in vivo, human
[4] = Coronary artery disease / congestive failure case studies: blood pressure and symptoms; type: in vivo, human
Excerpt: The present disclosure provides clinical evidence of the use of an acetyl cholinesterase inhibitor for treating coronary artery diseases including heart disease.

[5] = Renal function (BUN, creatinine, ultrafiltration) in patients on donepezil (case studies); type: in vivo, human
[6] = for fasting blood glucoses: patient eleven
[7] = patient six, two months of donepezil 5 mg daily
[8] = patient twelve, over the next week of donepezil 5 mg daily
[9] = patient three, donepezil 5 mg daily, over the next week

COc1cc2c(cc1OC)C(=O)C(CC1CCN(Cc3ccccc3)CC1)C2 (centres unmarked) [donepezil]
over all weight loss [1]: greater than 20 pounds
viral load (HIV; patient six, one month of donepezil 5 mg orally daily, before 1-2 million): 1 million
CD4 count (HIV; patient six, one month of donepezil 5 mg orally daily, before less than 20): 26
CD4 count (HIV; [7]): 42
viral load (HIV; [7]): non existent (below measurement detection)
CD4 count (HIV; patient thirteen, two months of donepezil 5 mg daily, before 24): 36
viral load (HIV; patient thirteen, two months of donepezil 5 mg daily, before over 4 million): 1.6 million
weight gained (HIV; patient thirteen, two months of donepezil 5 mg daily): over 15 pounds
evening dose of glargine insulin ([2]; patient eighteen, donepezil 10 mg orally daily, one month, before 5 units): discontinued
insulin requirements at bedtime (lantus) ([2]; donepezil increased to 10 mg daily): 12 units
insulin requirements at bedtime (lantus) ([2]; over one month of donepezil 5 mg orally daily): 25 units
pre prandial insulin coverage ([2]; patient four, after one month of donepezil 5 mg daily): eliminated
requirement for lantus insulin ([2]; patient nineteen, donepezil 5 then 10 mg, before 12 units at bedtime): no longer required lantus insulin
daily insulin requirement over a 24 hour period ([2]; patient one, after an additional month (two months) of donepezil 5 mg daily, before approx. 32 units): approximately 12 units
insulin requirement for 24 hour period ([2]; patient one, insulin pump, after one month of donepezil 5 mg orally daily, before approx. 32 units): < 20 units
pre-prandial insulin coverage (Novolog) ([2]; patient twelve, over 4 days of donepezil 5 mg daily, before 8 units): 4 units
evening dose of lantus insulin ([2]; patient twelve, over 4 days of donepezil 5 mg daily, before 30 units): 20 units
evening dose of lantus [2, 8]: 10 units
pre prandial insulin coverage [2, 8]: eliminated
dose of Humulin N in the AM ([2]; po, 5 mg): 10 units
evening dose of Humulin ([2]; po, 5 mg): 20 units
lymphedema in lower extremities ([3]; patient five, over the next month of donepezil 5 mg orally daily): notable decline
symptoms of painful diabetic polyneuropathy ([3]; patient four, one month of donepezil 5 mg daily): significantly reduced
electrocardiogram ([3]; patient fourteen (history of atrial fibrillation), donepezil 10 mg orally daily, about five weeks): normal sinus rhythm
foot drop ([3]; patient one, two months of donepezil 5 mg orally daily): resolved
painful symptoms of diabetic polyneuropathy ([3]; patient seven, donepezil 5 mg orally daily): diminution
edema in intact lower extremity ([3]; patient twelve, donepezil 5 mg daily): eliminated
blood pressure ([4]; patient eight, after one month, midodrine and diuretic discontinued): 120/70
blood pressure ([4]; patient eight, ensuing week of donepezil 5 mg daily): 110/60
blood pressure ([4]; patient eight, over 5 days of donepezil 5 mg daily, midodrine decreased, before 85/60): 100/60
blood pressure ([4]; patient eighteen, next 10 days of donepezil 5 mg daily): 100/70
blood pressure ([4]; patient eighteen, over 7 days of donepezil 5 mg daily, before 80/50): 90/60
blood pressure ([4]; patient seven, donepezil 5 mg daily, furosemide 20 mg every day): 110/70
diastolic blood pressure ([4]; patient seven, first two weeks of donepezil 5 mg daily): less than 80 mm Hg
diastolic blood pressure ([4]; patient seven, next two weeks of donepezil 5 mg daily): 70 mm Hg
blood pressure ([4]; patient seventeen, follow up one month later on donepezil 5 mg daily): 120/60
blood pressure ([4]; patient seventeen, ten days of donepezil 5 mg daily, midodrine discontinued): greater than 100/60
blood pressure [4, 9]: normalized
symptoms of congestive heart failure [4, 9]: resolved
blood pressure ([4]; patient twenty, donepezil 5 mg daily, two weeks after nitrates and lisinopril discontinued): 120/70
blood pressure ([4]; patient twenty, donepezil 5 mg daily, week after lisinopril decreased to 5 mg daily): 110/70
blood pressure ([4]; patient twenty, over two weeks of donepezil 5 mg daily, before 80/50): 100/70
shortness of breath ([4]; patient two, after one week of donepezil 5 mg daily): no further episodes of shortness of breath
blood pressure ([4]; patient two, after one week of donepezil 5 mg daily with furosemide 40 mg daily): 100/60
blood pressure ([4]; patient two, one week later, furosemide 20 mg every other day): 110/70
creatinine ([5]; patient fifteen, two months of donepezil 5 mg daily, before 1.8): 1.1
BUN ([5]; patient fifteen, two months of donepezil 5 mg daily, before 40): 24
creatinine ([5]; patient fourteen, five weeks of donepezil 5 then 10 mg, admission 2.0): 1.2
ultrafiltration per dialysis ([5]; patient sixteen, hemodialysis, two months of donepezil 5 mg daily, before 5-6 liters three times weekly): less than 2 liter
creatinine ([5]; patient twelve, one month of donepezil 5 mg daily, admission 1.6): 0.9
BUN ([5]; patient twelve, one month of donepezil 5 mg daily, admission 38): 21
fasting blood glucoses ([6]; donepezil 10 mg daily): less than 80 mg %
fasting blood glucoses ([6]; first month, donepezil 5 mg orally daily): less than 80 mg %
fasting blood sugars ([6]; patient fifteen, after one week of donepezil 5 mg daily): less than 100 mg %
preprandial blood sugars ([6]; patient five, after 3 days of donepezil 5 mg orally daily plus prandin 2 mg, before 100-120): less than 80 mg %
blood sugars ([6]; patient five, donepezil 5 mg daily, prandin discontinued, 1800 ADA diet): less than 110 mg %
blood sugar at lunch, one episode ([6]; patient five, donepezil 5 mg orally daily plus prandin): less than 50 mg %
other measured blood glucoses ([6]; patient nine, donepezil 10 mg, all oral hypoglycemic agents discontinued): less than 120 mg %
fasting blood glucose levels ([6]; patient nine, over 7 days of donepezil 5 mg orally daily, micronase discontinued): less than 90 mg %
blood glucose values ([6]; patient nineteen, donepezil 10 mg, metformin discontinued, 1800 cal ADA diet): less than 120 mg %
fasting blood sugars ([6]; patient sixteen, following donepezil 5 mg daily, glipizide discontinued, before 150-200): less than 100 mg %
fasting blood sugars ([6]; patient ten, first week of donepezil 5 mg orally daily): less than 100 mg %
blood sugars ([6]; patient ten, next 7 days of donepezil 5 mg orally daily): less than 111 mg %
fasting blood sugars ([6]; patient twelve, first 4 days of donepezil 5 mg daily): less than 100 mg %
fasting blood sugars ([6]; patient twelve, next week of donepezil 5 mg daily): less than 100 mg %
